Assay results reported in patent US9329192B2, “Polymer-coupled peptidases” (SENOVA GESELLSCHAFT FUR BIOWISSENSCHAFT UND TECHNIK MBH, priority 2010, dated 2016).

System: heparin in combination with antithrombin of plasma
Assay: Influence of heparin in plasma on amidolytic activity, chromogenic thrombin assay
Format: biochemical
Details: increasing concentrations of heparin in citrated plasma, substrate H-D-Chg-Ala-Arg-pNA
Experimental: The influence of heparin (Sigma, H-3393) on the amidolytic activity of PEG 5 kD-thrombin conjugate in plasma was compared with its influence on the amidolytic activity of unmodified thrombin using the chromogenic assay for quantitative determination of direct thrombin inhibitors (Example 5): 15 μl of a plasma sample (citrated plasma) were added to 50 μl chromogenic substrate (H-D-Chg-Ala-Arg-pNA, JenAffin GmbH, 3 mM in 0.05M Tris/HCl, 0.1M NaCl, pH 8.0 at 37° C.). Chromogenic reaction was started by addition of 100 μl PEG 5 kD-thrombin conjugate or thrombin, respectively. Increase in optical density (release of p-nitroaniline by cleavage of the chromogenic substrate) was recorded at 405 nm using the measurement device TC4+ (TECO GmbH).

Substance	influence of heparin on amidolytic activity
thrombin: bovine factor IIa (thrombin, EC 3.4.21.5, Kordia), unmodified	inhibit amidolytic activity
PEG 5 kD-thrombin conjugate: bovine factor IIa (thrombin) coupled with methoxy polyethylene glycol (PEG)-5,000 p-nitrophenyl carbonate	does not influence amidolytic activity
